Assay results from patent publication US20250188032A1, “NITROGEN-CONTAINING HETEROCYCLIC COMPOUNDS AND USES THEREOF” (BNH RESEARCH CO., LTD., priority 2022, published 2025).

Test system: 293T cells
Experiment: Cytotoxicity test (CCK-8 cell viability) in 293T cells
Format: cell-based, human
Settings: 24 hours co-incubation, 293T cell line, % of control
Method: Human undifferentiated neuroblastoma cell line SH-SY5Y and human embryonic kidney cell line (HEK)-293T were purchased from Korean Cell Line Bank (Korea) and Takara (Japan), respectively. Cells were grown in HyClone Minimal Essential Medium (MEM) and Dulbecco's Modified Eagle Medium (DMEM), respectively, supplemented with 10% (v/v) fetal bovine serum (FBS), penicillin (100 U/mL), and streptomycin ([…]). Cells were maintained in a humidified atmosphere of 95% air and 5% CO2 at 37° C. Cells were passaged 10 times at maximum. Cells were dissociated using 0.05% trypsin-EDTA solution and the cells were seeded in new culture dishes for maintenance.
To examine the cytotoxicity of compounds described herein in human cell lines, SH-SY5Y and 293T cells were used. Approximately 8,000 cells (for 293T) and 15,000 cells (for SH-SY5Y) were plated per well of a 96-well plate (SPL Life Sciences Co., Ltd., Pocheon, Korea). After incubating at 37° C. for 24 hours in a humidified atmosphere containing 5% CO2, the culture medium was replaced by a series of concentrations of test compounds diluted in the corresponding culture medium. The time of co-incubation was 24 hours and six replicates were made for each measurement. Finally, 10 μL of CCK-8 reagent (Dojindo Laboratories, Rockville, MD) was added to each well, and after incubation at 37° C. for 3 minutes, the OD at 450 nm was measured using a multifunction microplate reader (Tecan Infinite M200 Pro). These measurements were compared to that of a control and expressed as a percentage of the control to calculate cell viability. The IC50 value was calculated using SPSS software. To do this, the absorbance of the blank wells with only growth medium is subtracted from the values or the wells with cells. The readout value of background (vehicle) was set as a 100% viability, and then the percent viability for each test solution was calculated.
Cell viability (%)=[(As-Ab)/(Ac-Ab)]×100
The data was presented as the mean value and standard error of the mean (S.E.M.). Statistical analysis was performed with the one-way ANOVA with Tukey's post hoc test (GraphPad Prism 5 software package, version 5.02, GraphPad Software Inc. USA). Significance was accepted at p<0.05.

| SMILES | Cell viability test results (CCK) 10 uM | Cell viability test results (CCK) 100 uM |
| --- | --- | --- |
| O=C(O)[C@@H]1CCCN(C(=O)Cc2ccc(F)cc2Cl)C1 [BnH12004, (R)-1-(2-(2-chloro-4-fluorophenyl)acetyl)piperidine-3-carboxylic acid] | 95%< | 85%< |
| CCC(=O)N1C[C@H](C(=O)O)CC[C@@H]1C [BnH12008, (3R,6S)-6-methyl-1-propionylpiperidine-3-carboxylic acid] | 95%< | 90%< |
| C[C@H]1CC[C@@H](C(=O)O)CN1C(=O)c1ccc(F)cc1Cl [BnH12011, (3R,6S)-1-(2-chloro-4-fluorobenzoyl)-6-methylpiperidine-3-carboxylic acid] | 95%< | 95%< |
| O=C(O)[C@H]1CCCN1C(=O)Cc1ccc(F)cc1Cl [BnH12012, (2-(2-chloro-4-fluorophenyl)acetyl)-D-proline] | 95%< | 90%< |
| O=C(O)[C@@H]1CCCN1C(=O)Cc1ccc(F)cc1Cl [BnH12013, (2-(2-chloro-4-fluorophenyl)acetyl)-L-proline] | 99%< | 99%< |
| O=C(NO)[C@H]1CCCN1C(=O)Cc1ccc(F)cc1Cl [BnH12014, (R)-1-(2-(2-chloro-4-fluorophenyl)acetyl)-N-hydroxypyrrolidine-2-carboxamide] | 99%< | 90%< |
| O=C(NO)[C@@H]1CCCN1C(=O)c1ccccc1 [BnH12019, (S)-1-Benzoyl-N-hydroxypyrrolidine-2-carboxamide] | 99%< | 90%< |
| COC(=O)[C@@H]1CC[C@H](C)N(C(=O)Cc2ccc(F)cc2Cl)C1 [BnH12020, Methyl (3R,6S)-1-(2-(2-chloro-4-fluorophenyl)acetyl)-6-methylpiperidine-3-carboxylate] | 95%< | 95%< |
| CCOC(=O)[C@@H]1CC[C@H](C)N(C(=O)Cc2ccc(F)cc2Cl)C1 [BnH12021, Ethyl (3R,6S)-1-(2-(2-chloro-4-fluorophenyl)acetyl)-6-methylpiperidine-3-carboxylate] | 90%< | 80%< |
| C[C@H]1CC[C@@H](C(N)=O)CN1C(=O)Cc1ccc(F)cc1Cl [BnH12022, (3R,6S)-1-(2-(2-chloro-4-fluorophenyl)acetyl)-6-methylpiperidine-3-carboxamide] | 99%< | 99%< |
| C[C@H]1CC[C@@H](C(=O)O)CN1C(=O)Cc1ccc(Cl)cc1 [BnH12023, (3R,6S)-1-(2-(4-chlorophenyl)acetyl)-6-methylpiperidine-3-carboxylic acid] | 95%< | 80%< |
| Cc1ccc(CC(=O)N2C[C@H](C(=O)O)CC[C@@H]2C)cc1 [BnH12024, (3R,6S)-6-methyl-1-(2-(p-tolyl)acetyl)piperidine-3-carboxylic acid] | 99%< | 99%< |
| C[C@H]1CC[C@@H](C(=O)O)CN1C(=O)Cc1cccc(Cl)c1 [BnH12026, (3R,6S)-1-(2-(3-chlorophenyl)acetyl)-6-methylpiperidine-3-carboxylic acid] | 99%< | 99%< |
| C[C@H]1CC[C@@H](C(=O)O)CN1C(=O)Cc1ccc(Cl)c(Cl)c1 [BnH12028, (3R,6S)-1-(2-(3,4-dichlorophenyl)acetyl)-6-methylpiperidine-3-carboxylic acid] | 90%< | 80%< |
| C[C@H]1CC[C@@H](C(=O)O)CN1C(=O)Cc1ccc(C(C)(C)C)cc1 [BnH12029, (3R,6S)-1-(2-(4-(tert-butyl)phenyl)acetyl)-6-methylpiperidine-3-carboxylic acid] | 99%< | 80%< |
| Cc1cccc(CC(=O)N2C[C@H](C(=O)O)CC[C@@H]2C)c1 [BnH12030, (3R,6S)-6-methyl-1-(2-(m-tolyl)acetyl)piperidine-3-carboxylic acid] | 95%< | 85%< |
| C[C@H]1CC[C@@H](C(=O)O)CN1C(=O)Cc1ccc(F)cc1 [BnH12031, (3R,6S)-1-(2-(4-fluorophenyl)acetyl)-6-methylpiperidine-3-carboxylic acid] | 90%< | 75%< |
| C[C@H]1CC[C@@H](C(=O)O)CN1C(=O)Cc1ccc(Br)cc1 [BnH12032, (3R,6S)-1-(2-(4-bromophenyl)acetyl)-6-methylpiperidine-3-carboxylic acid] | 99%< | 95%< |
| C[C@H]1CC[C@@H](C(=O)[O-])CN1C(=O)Cc1ccncc1.[Na+] [BnH12033, Sodium (3R,6S)-6-methyl-1-(2-(pyridin-4-yl)acetyl)piperidine-3-carboxylate] | 90%< | 65%< |
| C[C@H]1CC[C@@H](C(=O)O)CN1C(=O)Cc1cccs1 [BnH12034, (3R,6S)-6-methyl-1-(2-(thiophen-2-yl)acetyl)piperidine-3-carboxylic acid] | 90%< | 85%< |
| C[C@H]1CC[C@@H](C(=O)O)CN1C(=O)Cc1ccco1 [BnH12035, (3R,6S)-1-(2-(furan-2-yl)acetyl)-6-methylpiperidine-3-carboxylic acid] | 90%< | 85%< |
| C[C@H]1CC[C@@H](C(=O)O)CN1C(=O)Cc1cncnc1 [BnH12040, (3R,6S)-6-methyl-1-(2-(pyrimidin-5-yl)acetyl)piperidine-3-carboxylic acid] | 85%< | 80%< |
| C[C@H]1CC[C@@H](C(=O)O)CN1C(=O)Cc1ncccn1 [BnH12041, (3R,6S)-6-methyl-1-(2-(pyrimidin-2-yl)acetyl)piperidine-3-carboxylic acid] | 90%< | 70%< |
| C[C@@H]1CC[C@H](C(=O)O)CN1C(=O)Cc1ccccc1 [BnH12062, (3S,6R)-6-methyl-1-(2-phenylacetyl)piperidine-3-carboxylic acid] | 85%< | 75%< |
| COc1ccc(CC(=O)N2C[C@H](C(=O)O)CC[C@@H]2C)cn1 [BnH12075, (3R,6S)-1-(2-(6-methoxypyridin-3-yl)acetyl)-6-methylpiperidine-3-carboxylic acid] | 99%< | 99%< |
| C[C@H]1CC[C@@H](C(=O)O)CN1C(=O)Cc1ccc(N(C)C)cc1 [BnH12076, (3R,6S)-1-(2-(4-(dimethylamino)phenyl)acetyl)-6-methylpiperidine-3-carboxylic acid] | 95%< | 95%< |
| CCC1CCC(C(=O)O)CN1C(=O)Cc1ccc(F)cc1Cl (stereo not drawn) [BnH12094, 1-(2-(2-chloro-4-fluorophenyl)acetyl)-6-ethylpiperidine-3-carboxylic acid] | 80%< | 70%< |
